Laboratory results as given in US20090156629A1, “INDENOISOQUINOLINE-RELEASABLE POLYMER CONJUGATES” (Enzon Pharmaceuticals, Inc., priority 2006, published 2009).

Assays:
[1] = system: standard panel of 12 tumor cell lines (NCI-H23, NCI-H522, MDA-MB-231, MDA-MB-435, SW-620, COLO 205, LOX, UACC-62, OVCAR-3, OVCAR-5, U251 and SF-295); details: historic data for comparison; cited from earlier work
[2] = system: standard panel of 12 tumor cell lines (NCI-H23, NCI-H522, MDA-MB-231, MDA-MB-435, SW-620, COLO 205, LOX, UACC-62, OVCAR-3, OVCAR-5, U251 and SF-295); experiment: In vivo hollow fiber assay (HFA); parameters: species or system mice; details: out of 48; NSC 706744 at 100 and 150 mg/kg; conjugates at 12 and 18 (20k) or 9 and 12 (40k) mg/kg/dose IndQ equivalent
Method: A standard panel of 12 tumor cell lines is used for routine hollow fiber screening. These include NCI-H23, NCI-H522, MDA-MB-231, MDA-MB-435, SW-620, COLO 205, LOX, UACC-62, OVCAR-3, OVCAR-5, U251 and SF-295. A total of 3 different tumor lines are prepared for each experiment so that each mouse receives 3 intraperitoneal implants (1 of each tumor line) and 3 subcutaneous implants (1 of each tumor line). Each compound tested is administered by intraperitoneal injection at 2 dose levels. The percent net growth for each cell line in each treatment group is calculated and compared to the percent net growth in the vehicle treated controls. A 50% or greater reduction in percent net growth in the treated samples compared to the vehicle control samples is considered a positive result. […] A compound is considered for xenograft testing if it has a combined ip+sc score of 20 or greater, a sc score of 8 or greater, or produces cell death of any cell line at either dose level evaluated.
The in vivo hollow fiber assay (HFA) in mice was conducted per previously published methods using the 20 k ΔPEG-RNL9-IndQ at equivalent IndQ active doses of 12 and 18 mg/kg/dose and 40 k ΔPEG-RNL9-IndQ at equivalent IndQ active doses of 9 and 12 mg/kg/dose. For comparison, NSC 706744 (native or unmodified) was evaluated at doses of 100 and 150 mg/kg/dose which are the highest doses routinely tested.

SMILES | Activity [1] | Cell Death [1] | IP + SC score [1] | IP score [1] | SC score [1] | score in IP fibers [2] | score in SC fibers [2]
CC(=O)O[C@H]1C(=O)[C@@]2(C)[C@H]([C@H](OC(=O)c3ccccc3)[C@]3(O)C[C@H](OC(=O)[C@H](O)[C@@H](NC(=O)c4ccccc4)c4ccccc4)C(C)=C1C3(C)C)[C@]1(OC(C)=O)CO[C@@H]1C[C@@H]2O [Taxol] | Active | Yes | 42 | 36 | 6 | – | –
COc1cc2c3c(n(CCCNCCO)c(=O)c2cc1OC)-c1cc2c(cc1C3=O)OCO2 [NSC 706744] | – | – | – | – | – | 6/48 | 6/48
